Consider 1 compound from patent US20240189278A1, “NOVEL COMPOUNDS AND METHODS FOR INCREASING KLOTHO GENE EXPRESSION” (Klotho Therapeutics, Inc., priority 2017, published 2024).

For one assay, the system named is Klotho mRNA. Kind of assay: RT-PCR of Klotho mRNA in kidney of aged mice. It is filed as in vivo, mouse. The protocol:
(§1) Animal study protocols. This example was performed according to the guide lines of the National Institute of Health on the care and use of laboratory animals and approved by the institutional Animal Care and Use Committee of University of Oklahoma Health Science Center. AU mice were housed in cages at room temperature (2S±PC) and were provided with Purina laboratory chow No 5001) and tap Water and lithium. 6 adult mice (12 months) and 20 old mice (24-26 months) mice were next in this study. The old (aged) mice were randomly divided into three subgroups and each group had 6 or 7 mice. One subgroup received compound H (10 mg/kg/day1, IP, Enamine LLC, Monmouth Jct., NJ) and one group received an equal volume of DMSO (dimethyl sulfoxide, 5%) and served as a control. The third group received no treatment Blood pressure was measured before and after treatment with the active agent at 1 week and 2 week. Pulse wave velocity (PWV) was measured after 2 weeks treatment with active agent all animals were sacrificed and perfused transcardially with PBS under deep anesthesia (ketamine xylazine, 90/10 mg, IP). The aortas were then quickly removed, washed and cut into pieces for subsequent analyses.
Reverse transcription-PCR (RT-PCR): Total RNA was extracted using a Direct˜zol T!vl RNA Miniprep kit (Zymo Research, Irvine CA) from kidney of adult and aged mice. […]

Assay [1] deals with MMP2. In words: Western blot of MMP2, aortas of aged mice. Format: in vivo, mouse. The protocol: as §1, with “The aortas were then quickly removed, washed and cut into pieces for subsequent analyses.” left out
(§2) Western Blot Analysis: Protein samples from the thoracic aorta were prepared in Lysis buffer as described previously. […] Protein abundance on western blots was quantified densitometry using Image lab software (Bio-Rad, Hercules, CA).

Assay [2] has as its system mouse vascular aortic smooth muscle cells (MOVAS). In words: Western blot of treated MOVAS cells. Format: cell-based. Particulars: 10 μM active agent, 16 h. On the procedure:
After cells confluent, the media were switched to DMEM with or without 2° A1 serum, and the cells were then treated with 10 μM active agent or 5 nM secreted Klotho for another 16 h then harvested for western blot analysis.
Western Blot Analysis: Protein samples from the thoracic aorta were prepared in Lysis buffer as described previously. The proteins ([…] were resolved by SOS-PAGE and transferred to a nitrocellulose membrane (Bio-Rad). The membrane was then incubated overnight (4° C.) with a primary antibody against collagen-1-elastin. M1′v1P2; MMP9, ALP (Abeam1 1:1000), TGF-1, TGF˜N3 (Santa Cmz, 1:100). RUX2, or aNTulmliu (Cell Signaling. 1:1000). Goat autimouse or goat anti rabbit horseradish peroxidase (1:2000 . . . 1:5,000; Santa Cruz Biotechnology) was used as a secondary antibody find incubated for 1 hour at room temperature. Specific proteins were detected by chemiluminescent methods using Amersham™ western blotting detection reagents (GE Healthcare, UK). Protein abundance on western blots was quantified densitometry using Image lab software (Bio-Rad, Hercules, CA).

Another assay has as its system elastin. Kind of assay: Elastin in aortas of aged mice (immunostaining and western blot). Format: in vivo, mouse. On the procedure: as §1, with “One subgroup received compound H (10 mg/kg/day1, IP, Enamine LLC, Monmouth Jct., NJ) and one group received an equal volume of DMSO (dimethyl sulfoxide, 5%) and served as a control.” left out, “The aortas were then quickly removed, washed and cut into pieces for subsequent analyses.” left out
Histological and Immunohistochemical Staining: Thoracic aortas were quickly excised and placed in cold (4′T) physiological saline solution. […] Aorta rings were post-fixed in 4% paraformaldehyde, embedded in paraffin and sectioned at […] thickness, Collagen was quantified by Masson' s trichrome staining as described previously. […] Blue-stained collagen areas were quantified with ImageJ (NIH, Bethesda, USA) film 4-5 regions per section. […]

Assay [3] has as its system MMP2. In words: MMP2 activity by zymogram PAGE, aortas of aged mice. Format: in vivo, mouse. Particulars: zymography. On the procedure:
as §1, with “The aortas were then quickly removed, washed and cut into pieces for subsequent analyses.” left out
Measurements for MMP2 and MMP9 Activity. MMP2 and MMP9 activity were measured by Zymogram PAGE (Bio˜-Rad). Briefly Lysates from thoracic aorta were quantified using BCA assay (Pierce) and prepared under non-reducing, non-denaturing conditions. […]

The subject of the next assay is Klotho gene. Kind of assay: Methylation analyses of Klotho gene (methylation-specific PCR). Format: in vivo, mouse. Particulars: kidney of aged mice, 2 weeks treatment. The protocol:
as §1, with “The aortas were then quickly removed, washed and cut into pieces for subsequent analyses.” left out
Methylation Analyses of Klotho Gene: The methylation status of CpG islands of mice Klotho gene was analyzed using methylation-specific PCR (MSP) and bisulfite sequencing. […] The methylation index was calculated as (band intensity of MSP with methylated primers)/(band intensity of inputted control). […]

The test system of a further assay is TGF-β1. In words: Western blot of TGF-β1, aortas of aged mice. Format: in vivo, mouse. The protocol: as §1, with “The aortas were then quickly removed, washed and cut into pieces for subsequent analyses.” left out
as §2

As to `O=C(Nc1ccccc1Cl)c1c[nH]c2ccccc12` [active agent, N-(2-chlorophenyl)-Ul-indde-3-carboxamide], the “Secreted Klotho mRNA expression” value in the assay with Klotho mRNA is given as “increased”. Moreover, in the assay with MMP2 [1], the MMP2 protein expression entry is recorded as “decreased”. Further, in assay [2] (Klotho free medium (KL(−))), the MMP2 expression entry is on record as “did not affect”, the MMP9 expression result is on record as “did not affect”, the TGFβ1 expression result is listed as “did not affect” and the TGFβ3 expression result is listed as “did not affect”. For the same compound, in assay [2] (regular medium), the MMP2 expression result was “did not change”, the MMP9 expression entry was “did not change”, the TGFβ1 expression result was “did not change” and the TGFβ3 expression result was “did not change”. Moreover, in the assay on elastin, the Elastin production entry is recorded as “increased”. The MMP2 activity entry in the assay with MMP2 [3] was “decreased”. In the assay with Klotho gene, the “Methylation of Klotho gene” value is on record as “inhibited”. In addition, the TGF-β1 expression entry in the assay with TGF-β1 is recorded as “decreased”.
